Results on 18 compounds are retold here after patent US11464770B2, “Anticancer pharmaceutical composition” (NATIONAL CANCER CENTER, priority 2016, dated 2022).

This assay concerns colorectal cancer cell lines (e.g. DLD-1, HCT 116, SW620, HCT-15, HCT-8, RKO). In words: Cell based assay, cell viability (CellTiter-Glo), colorectal cancer cell lines. The following applies: Homo sapiens, 72 hours treatment. Put shortly: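 Seed cells after trypsin-EDTA treatment, hold 24 h at constant temperature, then add compound to a final 0 to 2 μM. Culture 72 h more and measure viability via ATP detection.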
In general terms: Cellular ATP, detected with luciferase, serves as a proxy for viable cell number.

The mark [1] stands for this setting: DLD-1 cells, read-out: IC50, colorectal cancer cell line DLD-1.
The mark [2] stands for this setting: HCT 116 cells, read-out: IC50, colorectal cancer cell line HCT 116.
The mark [3] stands for this setting: HCT-8 cells, read-out: IC50, colorectal cancer cell line HCT-8.
[4] abbreviates: HCT-15 cells, read-out: IC50, colorectal cancer cell line HCT-15.
Where [5] appears, read: HT-29 cells, read-out: IC50, colorectal cancer cell line HT-29.
The mark [6] stands for this setting: LoVo cells, read-out: IC50, colorectal cancer cell line LoVo.
[7] abbreviates: RKO cells, read-out: IC50, colorectal cancer cell line RKO.
Where [8] appears, read: SW480 cells, read-out: IC50, colorectal cancer cell line SW480.
[9] abbreviates: SW-620, SW620 cells, read-out: IC50, colorectal cancer cell line SW620.

Each structure is given as a SMILES string. Where two headings read alike, the source gives them in different places. A value given as a limit tells only on which side of the number the result lay.

The term IC50 denotes the point on the concentration scale where inhibition reaches its midpoint. On to `O=C(c1ccccc1)c1c([S+]([O-])Cc2ccc(S(F)(F)(F)(F)F)cc2)[nH]c2c(F)ccc(F)c2c1=O` (stereo not drawn) [Compound 87, 3-benzoyl-5,8-difluoro-2-((4-(pentafluoro--sulfanyl)benzyl)sulfinyl)quinolin-4(1H)-one], for which the IC50 is over 2 µM under setting [1]; over 2 µM under setting [2]; over 2 µM under setting [3]; over 2 µM under setting [4]; over 10 µM under setting [5]; over 2 µM under setting [6]. Further, the IC50 reads like this: under setting [7], over 2 µM; under setting [8], over 2 µM; under setting [9], over 2 µM.

Take `Cc1cc(C[S+]([O-])c2[nH]c3c(Cl)ccc(Cl)c3c(=O)c2C(=O)c2ccccc2)no1` (stereo not drawn) [Compound 88, 3-benzoyl-5,8-dichloro-2-(((5-methylisoxazol-3-yl)methyl)sulfinyl)quinolin-4(1H)-one]: the IC50 by setting is: under setting [1], over 2 µM; under setting [2], over 2 µM; under setting [3], over 2 µM; under setting [4], over 2 µM; under setting [5], over 10 µM; under setting [6], over 2 µM. Moreover, the half-inhibitory concentration (IC50) is, setting by setting: under setting [7], over 2 µM; under setting [8], over 2 µM; under setting [9], over 2 µM.

With `CC(=O)c1c([S+]([O-])CN2C(=O)c3ccccc3C2=O)[nH]c2c(Cl)ccc(Cl)c2c1=O` (stereo not drawn) [Compound 90, 2-(((3-acetyl-5,8-dichloro-4-oxo-1,4-dihydroquinolin-2-yl)sulfinyl)methyl)isoindoline-1,3-dione], the half-maximal inhibitory concentration (IC50) is over 2 µM under setting [1]; over 2 µM under setting [2]; over 2 µM under setting [3]; over 2 µM under setting [4]; over 10 µM under setting [5]; over 2 µM under setting [6]. In addition, the concentration for half-maximal inhibition (IC50) is over 2 µM under setting [7], over 2 µM under setting [8] and over 2 µM under setting [9].

`COC(=O)c1ccc(C[S+]([O-])c2[nH]c3c(Cl)ccc(Cl)c3c(=O)c2C(C)=O)cc1` (stereo not drawn) [Compound 91, methyl 4-(((3-acetyl-5,8-dichloro-4-oxo-1,4-dihydroquinolin-2-yl)sulfinyl)methyl)benzoate]: the IC50 reads like this: under setting [1], 1.82 µM; under setting [2], over 2 µM; under setting [3], over 2 µM; under setting [4], over 2 µM; under setting [5], over 10 µM; under setting [6], over 2 µM. Further, the IC50 reads like this: under setting [7], 1.41 µM; under setting [8], over 2 µM; under setting [9], over 2 µM.

Regarding `COc1cccc2[nH]c(SCc3ccc(S(F)(F)(F)(F)F)cc3)c(C(C)=O)c(=O)c12` [Compound 92, 3-acetyl-5-methoxy-2-((4-(pentafluoro--sulfanyl)benzyl)thio)quinolin-4(1H)-one], the IC50 by setting is: under setting [1], over 2 µM; under setting [2], over 2 µM; under setting [3], over 2 µM; under setting [4], over 2 µM; under setting [5], over 10 µM; under setting [6], over 2 µM. For the same compound, the IC50 under setting [7] is over 2 µM, the IC50 under setting [8] was over 2 µM and the IC50 under setting [9] was over 2 µM.

For the compound `COc1cccc2[nH]c([S+]([O-])Cc3ccc(S(F)(F)(F)(F)F)cc3)c(C(C)=O)c(=O)c12` (stereo not drawn) [Compound 93, 3-acetyl-5-methoxy-2-((4-(pentafluoro--sulfanyl)benzyl)sulfinyl)quinolin-4(1H)-one], the IC50 by setting is: under setting [1], over 2 µM; under setting [2], over 2 µM; under setting [3], over 2 µM; under setting [4], over 2 µM; under setting [5], over 10 µM; under setting [6], over 2 µM. In addition, the IC50 is over 2 µM under setting [7], over 2 µM under setting [8] and over 2 µM under setting [9].

For `COc1cccc2[nH]c([S+]([O-])Cc3cc(C)on3)c(C(C)=O)c(=O)c12` (stereo not drawn) [Compound 94, 3-acetyl-5-methoxy-2-(((5-methylisoxazol-3-yl)methyl)sulfinyl)quinolin-4(1H)-one], the IC50 was over 2 µM under setting [1]; over 2 µM under setting [2]; over 2 µM under setting [3]; over 2 µM under setting [4]; over 10 µM under setting [5]; over 2 µM under setting [6]. For the same compound, the 50% inhibitory concentration (IC50) by setting is: under setting [7], over 2 µM; under setting [8], over 2 µM; under setting [9], over 2 µM.

On to `Cc1cc(C[S+]([O-])c2[nH]c3c(Br)ccc(Cl)c3c(=O)c2C(=O)C2CC2)no1` (stereo not drawn) [Compound 96, 8-bromo-5-chloro-3-(cyclopropanecarbonyl)-2-(((5-methylisoxazol-3-yl)methyl)sulfinyl)quinolin-4(1H)-one], for which the 50% inhibitory concentration (IC50) is 1.82 µM under setting [1]; 1.53 µM under setting [2]; over 2 µM under setting [3]; 1.87 µM under setting [4]; over 10 µM under setting [5]; over 2 µM under setting [6]. Besides, the half-maximal inhibitory concentration (IC50) was 1.58 µM under setting [7], over 2 µM under setting [8] and 1.66 µM under setting [9].

Regarding `Cc1cc(C[S+]([O-])c2[nH]c3c(Cl)ccc(Cl)c3c(=O)c2C(=O)C2CC2)no1` (stereo not drawn) [Compound 97, 5,8-dichloro-3-(cyclopropanecarbonyl)-2-(((5-methylisoxazol-3-yl)methyl)sulfinyl)quinolin-4(1H)-one], the IC50 runs as follows: under setting [1], 1.36 µM; under setting [2], 1.25 µM; under setting [3], 1.35 µM; under setting [4], 1.42 µM; under setting [5], over 10 µM; under setting [6], 1.52 µM. For the same compound, the IC50 by setting is: under setting [7], 1.27 µM; under setting [8], 1.69 µM; under setting [9], 1.1 µM.

Take `CC(=O)c1c([S+]([O-])Cc2ccc(C#N)s2)[nH]c2c(Br)ccc(Cl)c2c1=O` (stereo not drawn) [Compound 98, 5-(((3-acetyl-8-bromo-5-chloro-4-oxo-1,4-dihydroquinolin-2-yl)sulfinyl)methyl)thiophene-2-carbonitrile]: the concentration for half-maximal inhibition (IC50) is 1.52 µM under setting [1]; 1.48 µM under setting [2]; 1.66 µM under setting [3]; 1.73 µM under setting [4]; over 10 µM under setting [5]; over 2 µM under setting [6]. Besides, the IC50 by setting is: under setting [7], 1.34 µM; under setting [8], over 2 µM; under setting [9], 1.76 µM.

On to `CC(=O)c1c([S+]([O-])Cc2ccc(-n3cccn3)nc2)[nH]c2c(Br)ccc(Cl)c2c1=O` (stereo not drawn) [Compound 99, 2-(((6-(1H-pyrazol-1-yl)pyridin-3-yl)methyl)sulfinyl)-3-acetyl-8-bromo-5-chloroquinolin-4(1H)-one], for which the 50% inhibitory concentration (IC50) under setting [1] was 0.87 µM; the IC50 under setting [2] was determined as 0.82 µM; the IC50 under setting [3] worked out at 0.98 µM; the IC50 under setting [4] came to 0.97 µM; the IC50 under setting [5] was over 10 µM; the IC50 under setting [6] worked out at 1.45 µM. Further, the concentration for half-maximal inhibition (IC50) came to 0.95 µM under setting [7], 1.3 µM under setting [8] and 0.92 µM under setting [9].

In the case of `CC(=O)c1c([S+]([O-])Cc2ccc(N)nc2)[nH]c2c(Br)ccc(Cl)c2c1=O` (stereo not drawn) [Compound 100, 3-acetyl-2-(((6-aminopyridin-3-yl)methyl)sulfinyl)-8-bromo-5-chloroquinolin-4(1H)-one], the IC50 is, setting by setting: under setting [1], over 2 µM; under setting [2], over 2 µM; under setting [3], over 2 µM; under setting [4], over 2 µM; under setting [5], over 10 µM; under setting [6], over 2 µM. Moreover, the half-maximal inhibitory concentration (IC50) reads like this: under setting [7], over 2 µM; under setting [8], over 2 µM; under setting [9], over 2 µM.

As to `O=C(c1c([S+]([O-])Cc2ccc(SC(F)(F)F)cc2)[nH]c2c(Br)ccc(Cl)c2c1=O)C1CC1` (stereo not drawn) [Compound 101, 8-bromo-5-chloro-3-(cyclopropanecarbonyl)-2-((4-((trifluoromethyl)thio)benzyl)sulfinyl)quinolin-4(1H)-one], the IC50 is over 2 µM under setting [1]; 1.74 µM under setting [2]; 1.61 µM under setting [3]; over 2 µM under setting [4]; over 10 µM under setting [5]; over 2 µM under setting [6]. Also, the IC50 was 1.91 µM under setting [7], over 2 µM under setting [8] and over 2 µM under setting [9].

For the compound `CC(=O)c1c([S+]([O-])Cc2ccc(C(F)(F)F)nc2C)[nH]c2c(Br)ccc(Cl)c2c1=O` (stereo not drawn) [Compound 102, 3-acetyl-8-bromo-5-chloro-2-(((2-methyl-6-(trifluoromethyl)pyridin-3-yl)methyl)sulfinyl)quinolin-4(1H)-one], the IC50 was 1.16 µM under setting [1]; 1.22 µM under setting [2]; 1.24 µM under setting [3]; 1.33 µM under setting [4]; over 10 µM under setting [5]; 1.94 µM under setting [6]. Besides, the IC50 reads like this: under setting [7], 1.19 µM; under setting [8], 1.6 µM; under setting [9], 1.22 µM.

As to `CC(=O)c1c([S+]([O-])Cc2ccc(NS(C)(=O)=O)cc2)[nH]c2c(Br)ccc(Cl)c2c1=O` (stereo not drawn) [Compound 103, N-(4-(((3-acetyl-8-bromo-5-chloro-4-oxo-1,4-dihydroquinolin-2-yl)sulfinyl)methyl)phenyl)methane-sulfonamide], the half-inhibitory concentration (IC50) runs as follows: under setting [1], over 2 µM; under setting [2], over 2 µM; under setting [3], over 2 µM; under setting [4], over 2 µM; under setting [5], over 10 µM; under setting [6], over 2 µM. The IC50 runs as follows: under setting [7], over 2 µM; under setting [8], over 2 µM; under setting [9], over 2 µM.

With `CC(=O)c1c([S+]([O-])Cc2ccc(Cl)nc2)[nH]c2c(Br)ccc(Cl)c2c1=O` (stereo not drawn) [Compound 104, 3-acetyl-8-bromo-5-chloro-2-(((6-chloropyridin-3-yl)methyl)sulfinyl)quinolin-4(1H)-one], the IC50 under setting [1] was 1.24 µM; the IC50 under setting [2] is 1.32 µM; the IC50 under setting [3] came out at 1.29 µM; the 50% inhibitory concentration (IC50) under setting [4] stood at 1.49 µM; the IC50 under setting [5] is over 10 µM; the half-inhibitory concentration (IC50) under setting [6] is over 2 µM. Further, the IC50 by setting is: under setting [7], 1.15 µM; under setting [8], 1.58 µM; under setting [9], 1.36 µM.

For `COCCNc1ccc(C[S+]([O-])c2[nH]c3c(Br)ccc(Cl)c3c(=O)c2C(C)=O)cn1` (stereo not drawn) [Compound 105, 3-acetyl-8-bromo-5-chloro-2-(((6-((2-methoxyethyl)amino)pyridin-3-yl)methyl)sulfinyl)quinolin-4(1H)-one], the concentration for half-maximal inhibition (IC50) was over 2 µM under setting [1]; over 2 µM under setting [2]; over 2 µM under setting [3]; over 2 µM under setting [4]; over 10 µM under setting [5]; over 2 µM under setting [6]. Besides, the concentration for half-maximal inhibition (IC50) reads like this: under setting [7], over 2 µM; under setting [8], over 2 µM; under setting [9], over 2 µM.

As to `CC(=O)c1c([S+]([O-])Cc2nonc2C)[nH]c2c(Br)ccc(Cl)c2c1=O` (stereo not drawn) [Compound 106, 3-acetyl-8-bromo-5-chloro-2-(((4-methyl-1,2,5-oxadiazol-3-yl)methyl)sulfinyl)quinolin-4(1H)-one], the IC50 under setting [1] was over 2 µM; the IC50 under setting [2] is over 2 µM; the 50% inhibitory concentration (IC50) under setting [3] was over 2 µM; the half-maximal inhibitory concentration (IC50) under setting [4] was over 2 µM; the IC50 under setting [5] was over 10 µM; the IC50 under setting [6] is over 2 µM. Also, the IC50 reads like this: under setting [7], over 2 µM; under setting [8], over 2 µM; under setting [9], over 2 µM.
